Where a name gives a salt, the structure may show the parent alone. Read-outs that look alike come from different tables or passages of the source.
Legend:
[1] = biological target: recombinant human MetAP2 (Homo sapiens (Human), UniProt P50579); assay: recombinant human MetAP2 enzyme inhibition assay; format: biochemical; details: recombinant human MetAP2, MAS peptide substrate, 25 minutes at 25° C
Experimental: Compounds are tested for their capacity to inhibit recombinant human MetAP2 activity using the following assay.
Flag tagged Human recombinant MetAP2 expressed and isolated for use as the enzyme source. 10 mM stock solutions of compounds were prepared in 100% DMSO and further diluted in 100% DMSO required concentration to 1 mM stocks. The stock compound solutions and DMSO vehicle controls were diluted to target final compound concentrations using assay buffer to a final concentration of 50 mM HEPES containing 100 mM NaCl, pH adjusted to 7.5. The MAS peptide was formulated to a 7.5 mM stock in distilled water and prior to use further diluted 1:4. […] 40 μl of enzyme was mixed with 100 μl of MnCl2 then further diluted in assay buffer to a final concentration of 16 μg/ml. To test for compound effect on MetAP2 enzyme activity, 5 μl of test compound, 10 μl of MAS substrate/amino acid oxidase mixture, 10 μl of MetAP2 was added to test wells in a 384 well black plate with blank wells containing no enzyme, replaced with 10 μl of assay buffer. All compounds were tested in duplicate on two occasions on the same day.
The plate was sealed with a TopSeal A cover and mixed briefly on an orbital mixer at 900 rpm. The plate was incubated for a further 25 minutes at 25° C. A 5× stock of Amplex buffer was prepared (0.25M sodium phosphate, pH 7.4) and stored at 4° C. […] 25 μl detection reagent was added to each well of the test plate, which was re-sealed and mixed briefly on an orbital shaker.

[2] = tested on: Diet Induced Obese (DIO) C57BL/6 mice; assay: 10 day DIO mouse model (body weight, food intake, hematology, blood chemistry); format: in vivo; details: 240 h, DIO mouse, once a day for 10 days, read-out: DIO Mouse 10-day weight loss vs vehicle; for inhibition in vivo at 0.3 mg/kg: 0.3 mpk sc
Method in brief: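 DIO C57BL/6 mice on 60% kcal fat diet received compounds subcutaneously once daily for 10 days at 1.0, 0.5, 0.3, 0.1 or 0.03 mpk, in 10% DMSO in water, after 3-day vehicle acclimation. Body weight and food intake were recorded daily. Hematology and blood chemistry were taken on Day 11, 24 h post-final dose.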

[3] = tested on: Male Sprague Dawley rats on high fat diet; assay: 11 day rat DIO model (body weight, food intake, hematology, blood chemistries); format: in vivo; details: 264 h, DIO rat, once a day for 11 days, read-out: DIO Rat 11-day weight loss vs vehicle; for inhibition in vivo at 0.3 mg/kg: 0.3 mpk sc
Source text: The objective of this study design is to investigate the efficacy of disclosed compounds in an 11 day rat DIO model used to screen compounds for pharmacologic efficacy on endpoints related to obesity and metabolism. Effects on body weight, food intake, hematology and blood chemistries were the primary readouts of this study design. […] Rats were fed Research Diets D12451 (45% High Fat) and provided water ad libitum. Rats were received and housed in the facility for at least two or three weeks prior to start of test article administration. On Day −4 or −3, rats were randomized into study groups based on body weight and body weights were continued to be recorded daily for the duration of the study. Daily food intake was assessed starting on Study Day −2 by weighing the hopper including the food to avoid loss of food in transfer.
Compounds were formulated into a 100% DMSO stock (at 9 mg/mL) prior to the start, and further diluted into the target working concentration using the vehicle of 10% DMSO in water. Prior to test article administration, starting on Day −3 a dosing acclimation occured with all animals receiving a subcutaneous injection of vehicle (10% DMSO) only for 3 days. Starting on Day 1, test compounds or vehicle were administered based on individual body weight, subcutaneously, once a day for 11 days. All animals were sacrificed on Day 11, approximately 2 hours following the final dosing on Day 11. After sacrifice, whole blood was collected and analyzed for hematology and blood chemistry parameters.
Compounds were tested vs. vehicle at various doses (1.0, 0.5, 0.3, 0.1, 0.03 mpk sc (mg per kg animal weight delivered subcutaneously), and the results are shown in Table 2 below.

recombinant human MetAP2, sequence (P50579 whole entry): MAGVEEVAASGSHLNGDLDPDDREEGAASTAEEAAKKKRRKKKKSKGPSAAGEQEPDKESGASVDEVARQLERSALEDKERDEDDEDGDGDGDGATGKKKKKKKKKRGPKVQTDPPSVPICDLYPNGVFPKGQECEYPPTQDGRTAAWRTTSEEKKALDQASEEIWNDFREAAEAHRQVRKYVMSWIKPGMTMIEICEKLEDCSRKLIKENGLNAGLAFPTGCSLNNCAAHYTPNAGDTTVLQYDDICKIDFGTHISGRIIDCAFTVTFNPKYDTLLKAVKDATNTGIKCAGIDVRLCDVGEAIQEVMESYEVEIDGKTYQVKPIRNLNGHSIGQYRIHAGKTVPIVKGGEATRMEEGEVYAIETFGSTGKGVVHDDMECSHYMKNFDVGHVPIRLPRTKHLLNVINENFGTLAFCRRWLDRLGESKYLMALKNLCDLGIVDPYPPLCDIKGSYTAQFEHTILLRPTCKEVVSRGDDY

SMILES | IC50 [1] [nM] | inhibition in vivo at 0.3 mg/kg [2] [%] | other results
CCN(CC)CCC1(O)CN(C(=O)O[C@@H]2CC[C@]3(CO3)[C@@H]([C@@]3(C)O[C@@H]3CC=C(C)C)[C@@H]2OC)C1 [Example 49, (3R,4S,5S,6R)-5-methoxy-4-((2R,3R)-2-methyl-3-(3-methylbut-2-enyl)oxiran-2-yl)-1-oxaspiro[2.5]octan-6-yl 3-(2-(diethylamino)ethyl)-3-hydroxyazetidine-1-carboxylate] | < 50 | 4.1 | 
CO[C@@H]1[C@H](OC(=O)N2CC(CCN3CCC(O)CC3)C2)CC[C@]2(CO2)[C@H]1[C@@]1(C)O[C@@H]1CC=C(C)C [Example 7, (3R,4S,5S,6R)-5-methoxy-4-((2R,3R)-2-methyl-3-(3-methylbut-2-en-1-yl)oxiran-2-yl)-1-oxaspiro[2.5]octan-6-yl 3-(2-(4-hydroxypiperidin-1-yl)ethyl)azetidine-1-carboxylate] | < 50 |  | inhibition in vivo at 0.3 mg/kg ([2]; Mus musculus, sc): 1.8%
CCN(CC)CCCC1(O)CN(C(=O)O[C@@H]2CC[C@]3(CO3)[C@@H]([C@@]3(C)O[C@@H]3CC=C(C)C)[C@@H]2OC)C1 [Example 61, (3R,4S,5S,6R)-5-methoxy-4-((2R,3R)-2-methyl-3-(3-methylbut-2-enyl)oxiran-2-yl)-1-oxaspiro[2.5]octan-6-yl 3-(3-(diethylamino)propyl)-3-hydroxyazetidine-1-carboxylate] | < 50 |  | 
CCN(CC)CCNC(=O)OC1CN(C(=O)O[C@@H]2CC[C@]3(CO3)[C@@H]([C@@]3(C)O[C@@H]3CC=C(C)C)[C@@H]2OC)C1 [Example 73, (3R,4S,5S,6R)-5-methoxy-4-((2R,3R)-2-methyl-3-(3-methylbut-2-en-1-yl)oxiran-2-yl)-1-oxaspiro[2.5]octan-6-yl 3-(((2-(diethylamino)ethyl)carbamoyl)oxy)azetidine-1-carboxylate] | < 50 | 7.4 | 
CCN(CC)CCC1CCN1C(=O)O[C@@H]1CC[C@]2(CO2)[C@@H]([C@@]2(C)O[C@@H]2CC=C(C)C)[C@@H]1OC (stereo partly drawn) [Example 106, (3R,4S,5S,6R)-5-methoxy-4-((2R,3R)-2-methyl-3-(3-methylbut-2-enyl)oxiran-2-yl)-1-oxaspiro[2.5]octan-6-yl 2-(2-(diethylamino)ethyl)azetidine-1-carboxylate] |  |  | inhibition in vivo at 0.1 mg/kg ([2]; Mus musculus, sc, 0.1 mpk sc): 2%; inhibition in vivo at 0.5 mg/kg ([3]; 0.5 mpk sc): 4.82%
CCN(CC)C[C@H]1CCN1C(=O)O[C@@H]1CC[C@]2(CO2)[C@@H]([C@@]2(C)O[C@@H]2CC=C(C)C)[C@@H]1OC [Example 43, (R)-((3R,4S,5S,6R)-5-methoxy-4-((2R,3R)-2-methyl-3-(3-methylbut-2-enyl)oxiran-2-yl)-1-oxaspiro[2.5]octan-6-yl) 2-((diethylamino)methyl)azetidine-1-carboxylate formate] |  | 2.7 | inhibition in vivo at 0.3 mg/kg [3]: 0.35%; inhibition in vivo at 1 mg/kg ([3]; 1.0 mpk sc): 2.9%
CO[C@@H]1[C@H](OC(=O)N2CC[C@@H](CCN3CCOCC3)C2)CC[C@]2(CO2)[C@H]1[C@@]1(C)O[C@@H]1CC=C(C)C [Example 55, (R)-(3R,4S,5S,6R)-5-methoxy-4-((2R,3R)-2-methyl-3-(3-methylbut-2-en-1-yl)oxiran-2-yl)-1-oxaspiro[2.5]octan-6-yl 3-(2-morpholinoethyl)pyrrolidine-1-carboxylate] |  | 12.2 | inhibition in vivo at 0.3 mg/kg [3]: 7.5%

The next lines start with results.

IC50 [1] [nM] | SMILES | inhibition in vivo at 0.3 mg/kg [2] [%] | other results
< 50 | CCN(CC)CCC1CCN(C(=O)O[C@@H]2CC[C@]3(CO3)[C@@H]([C@@]3(C)O[C@@H]3CC=C(C)C)[C@@H]2OC)C1 (stereo in doubt) [Example 56, (S)-(3R,4S,5S,6R)-5-methoxy-4-((2R,3R)-2-methyl-3-(3-methylbut-2-en-1-yl)oxiran-2-yl)-1-oxaspiro[2.5]octan-6-yl 3-(2-(diethylamino)ethyl)pyrrolidine-1-carboxylate] | 7.2 | 
< 50 | CO[C@@H]1[C@H](OC(=O)N2CC(OC(N)=O)C2)CC[C@]2(CO2)[C@H]1[C@@]1(C)O[C@@H]1CC=C(C)C [Example 72, (3R,4S,5S,6R)-5-methoxy-4-((2R,3R)-2-methyl-3-(3-methylbut-2-enyl)oxiran-2-yl)-1-oxaspiro[2.5]octan-6-yl 3-(carbamoyloxy)azetidine-1-carboxylate] | 0.8 | 
< 50 | CO[C@@H]1[C@H](OC(=O)N2CC(CCN3CCCCC3)C2)CC[C@]2(CO2)[C@H]1[C@@]1(C)O[C@@H]1CC=C(C)C [Example 4, (3R,4S,5S,6R)-5-methoxy-4-((2R,3R)-2-methyl-3-(3-methylbut-2-enyl)oxiran-2-yl)-1-oxaspiro[2.5]octan-6-yl 3-(2-(piperidin-1-yl)ethyl)azetidine-1-carboxylate formate] | 4.1 | 
< 50 | CO[C@@H]1[C@H](OC(=O)N2CC(CCN3CCC(C)(O)CC3)C2)CC[C@]2(CO2)[C@H]1[C@@]1(C)O[C@@H]1CC=C(C)C [Example 8, (3R,4S,5S,6R)-5-methoxy-4-((2R,3R)-2-methyl-3-(3-methylbut-2-enyl)oxiran-2-yl)-1-oxaspiro[2.5]octan-6-yl 3-(2-(4-hydroxy-4-methylpiperidin-1-yl)ethyl)azetidine-1-carboxylate] | 4.9 | inhibition in vivo at 1 mg/kg ([2]; 1.0 mpk sc): 17.3%
< 50 | CNC(=O)CC1CN(C(=O)O[C@@H]2CC[C@]3(CO3)[C@@H]([C@@]3(C)O[C@@H]3CC=C(C)C)[C@@H]2OC)C1 [Example 63, (3R,4S,5S,6R)-5-methoxy-4-((2R,3R)-2-methyl-3-(3-methylbut-2-enyl)oxiran-2-yl)-1-oxaspiro[2.5]octan-6-yl 3-(2-(methylamino)-2-oxoethyl)azetidine-1-carboxylate] | 0.5 | 
< 50 | CCN(CC)CCNC(=O)CC1CN(C(=O)O[C@@H]2CC[C@]3(CO3)[C@@H]([C@@]3(C)O[C@@H]3CC=C(C)C)[C@@H]2OC)C1 [Example 66, (3R,4S,5S,6R)-5-methoxy-4-((2R,3R)-2-methyl-3-(3-methylbut-2-enyl)oxiran-2-yl)-1-oxaspiro[2.5]octan-6-yl 3-(2-(2-(diethylamino)ethylamino)-2-oxoethyl)azetidine-1-carboxylate] | 7.6 | 
< 50 | CNC(=O)NC1CN(C(=O)O[C@@H]2CC[C@]3(CO3)[C@@H]([C@@]3(C)O[C@@H]3CC=C(C)C)[C@@H]2OC)C1 [Example 84, (3R,4S,5S,6R)-5-methoxy-4-((2R,3R)-2-methyl-3-(3-methylbut-2-enyl)oxiran-2-yl)-1-oxaspiro[2.5]octan-6-yl 3-(3-methylureido)azetidine-1-carboxylate] | 0.8 | 
< 50 | CO[C@@H]1[C@H](OC(=O)N2CC(CCN3CC4(COC4)C3)C2)CC[C@]2(CO2)[C@H]1[C@@]1(C)O[C@@H]1CC=C(C)C [Example 16, (3R,4S,5S,6R)-5-methoxy-4-((2R,3R)-2-methyl-3-(3-methylbut-2-en-1-yl)oxiran-2-yl)-1-oxaspiro[2.5]octan-6-yl 3-(2-(2-oxa-6-azaspiro[3.3]heptan-6-yl)ethyl)azetidine-1-carboxylate] | 3.1 | 
